Consider eight compounds from US6482921B1, “Uridyl peptide antibiotic (UPA) derivatives, their synthesis and use” (Essential Therapeutics, Inc., priority 1999, dated 2002).

Values after ≈ are worked out from the molar mass of the structure shown.

Common to all, as to assay type: cell-based
The test system of assay [1] is Staphylococcus aureus ATCC 29213. As to the kind of experiment: MIC broth microdilution, S. aureus ATCC 29213 (wild type). The conditions noted are these: S. aureus ATCC 29213. In general terms: Dilution methods test growth across graded concentrations, often in twofold steps.
Assay [2] has as its system Pseudomonas aeruginosa PAM 1154. As to the kind of experiment: MIC broth microdilution, P. aeruginosa PAM 1154 (OprM::Hg). The conditions noted are these: P. aeruginosa PAM 1154 OprM::Hg.
Assay [3] deals with Staphylococcus aureus 8325-4. In words: MIC broth microdilution, S. aureus 8325-4 (wild type). Conditions: S. aureus 8325-4.
Assay [4] deals with Escherichia Coli MC 4100 AcrAB UPA3r. As to the kind of experiment: MIC broth microdilution, E. coli MC 4100 AcrAB UPA3r (ΔAcrAB, UPA resistant). Conditions: E. coli AcrAB UPA3^r.
The test system of assay [5] is Pasteurella multocida pm002. In words: MIC broth microdilution, P. multocida pm002 (wild type).
The next assay deals with Escherichia Coli MC 4100. In words: MIC broth microdilution, E. coli MC 4100 (wild type). Conditions: E. coli MC 4100.
The test system of assay [6] is Pseudomonas aeruginosa PAM 1323. In words: MIC broth microdilution, P. aeruginosa PAM 1323 (medium level UPA resistance). The method, then:
Compounds were tested against several panels of bacteria. In a first panel, Table 3, several strains of Pseudomonas aeruginosa, Escherichia coli and Staphylococcus aureus were employed as the target bacteria.
For the bacteria in Table 3, the assay was performed in Mueller-Hinton Broth (MHB) with a final bacterial inoculum of 5×10^5 CFU/ml and a final volume of 100 μl. Control drugs, including imipenem and pacidimycin 4, and the test compounds were prepared at a concentration which was twice the desired final concentration (256 μg/ml). Dilution of the controls and the test compounds was accomplished directly on the test plates by serial 2-fold dilution using a multi-channel pipette. Both a positive and a negative growth control was included in each plate.
The bacterial inocula were prepared as follows. Bacterial strains were grown overnight at 35° C. in MHB. […] The culture was then diluted 1:10 and allowed to grow for an additional one hour at 35° C. in a shaking incubator. The inocula were then prepared by diluting the early log phase (one hour) cultures 1:2000 with fresh MHB. A volume of 50 μl of the inocula was added to each well, resulting in an inoculum of approximately 5×10^5 CFU/ml. The exact inocula were determined by putting 10 μl of 10-fold serial dilution of the bacterial suspensions onto TSA. After overnight incubation at 35° C., colony-forming units were counted manually.
The microtiter plates were incubated for 20 hours at 35° C. and were then read using a microtiterplate reader (Molecular Devices) at 650 nm as well as being visually observed using a microtiterplate reading mirror.

Assay [7] deals with Pseudomonas aeruginosa PAM 1135. As to the kind of experiment: MIC broth microdilution, P. aeruginosa PAM 1135 (high level UPA resistance). The conditions noted are these: P. aeruginosa PAM 1135 UPA1^r.
Assay [8] has as its system Pseudomonas aeruginosa PAM 1020. In words: MIC broth microdilution, P. aeruginosa PAM 1020 (wild type). The conditions noted are these: P. aeruginosa PAM 1020.
Assay [9] deals with Escherichia Coli MC 4100 AcrAB. As to the kind of experiment: MIC broth microdilution, E. coli MC 4100 AcrAB (ΔAcrAB). Conditions: E. coli AcrAB.

For `CC(N)C(=O)N(C)C(C)C(NC(=O)C(Cc1ccc([N+](=O)[O-])cc1)NC(=O)NC(Cc1ccc(O)cc1)C(=O)O)C(=O)NCC1CC(O)C(n2ccc(=O)[nH]c2=O)O1` [Compound 126, 1-[5′-[(2S,3S)-N^3-L-Alanyl-N^2-[N-[[(1S)-1-carboxy-4-hydroxyphenethyl]carbamoyl]-L-4-nitrophenylalanine-N^3-methyl-2,3-diaminobutyramido]-3′,5′-dideoxy-α-L-arabinofuranosyl]uracil], the “MIC (μg/ml) Broth microdilution” value is 512 µg/mL (≈ 631 µM) in [1]; 16 µg/mL (≈ 19.7 µM) in assay [2]; 256 µg/mL (≈ 315 µM) in assay [3]; 4 µg/mL (≈ 4.93 µM) in [4]; 512 µg/mL (≈ 631 µM) in assay [5]; 16 µg/mL (≈ 19.7 µM) with Escherichia Coli MC 4100. For the same compound, the “MIC (μg/ml) Broth microdilution” value in assay [6] is greater than 512 µg/mL; in assay [7], greater than 512 µg/mL; in assay [8], 128 µg/mL (≈ 158 µM); in assay [9], less than 1 µg/mL.
As to “1-[5′[(2S,3S)-N^2-[N-[[(1S)-1-Carboxy-4-hydroxyphenethyl]carbamoyl]-L-4-fluorophenylalanyl)-N^3-L-phenylalanyl-N^3-methyl-2,3-diaminobutyramido]-3′,5′-dideoxy-β-L-arabinofuranosyl]uracil [Compound 106]”, the “MIC (μg/ml) Broth microdilution” value in assay [1] was greater than 512 µg/mL; in assay [2], 64 µg/mL; in assay [3] it was greater than 512 µg/mL; in [4] it was 512 µg/mL; in assay [5], 512 µg/mL; in the assay with Escherichia Coli MC 4100, 512 µg/mL. For the same compound, the “MIC (μg/ml) Broth microdilution” value worked out at 256 µg/mL in [6], 256 µg/mL in assay [7], 32 µg/mL in [8] and 8 µg/mL in [9].
In the case of “1-[5′-[(2S,3S)-N^3-L-Alanyl-N^2-[(2R)-2-benzyl-N-[(1S)-1-carboxy-2-indol-3-ylethyl]succinimoyl]-N^3-methyl-2,3-diaminobutyramido]-3′,5′-dideoxy-α-L-arabinofuranosyl]uracil [Compound 154]”, the “MIC (μg/ml) Broth microdilution” value in [1] is greater than 512 µg/mL; in assay [2], 8 µg/mL; in assay [3], greater than 512 µg/mL; in assay [4] it was 128 µg/mL; in assay [5], greater than 512 µg/mL; in the assay with Escherichia Coli MC 4100, greater than 512 µg/mL. Besides, the “MIC (μg/ml) Broth microdilution” value is greater than 512 µg/mL in assay [6], greater than 512 µg/mL in assay [7], 64 µg/mL in assay [8] and 8 µg/mL in [9].
Regarding `CC(N)C(=O)N(C)C(C)C(NC(=O)C(CCCCN)NC(=O)NC(Cc1c[nH]c2ccccc12)C(=O)O)C(=O)NCC1CC(O)C(n2ccc(=O)[nH]c2=O)O1` [Compound 148, 1-[5′-[(2S,3S)-N^3-L-Alanyl-N^2-[N-[[(1S)-1-carboxy-2-indol-3-ylethyl]carbamoyl]-L-lysinyl]-N^3-methyl-2,3-diaminobutyramido]-3′,5′-dideoxy-α-L-arabinofuranosyl]uracil], the “MIC (μg/ml) Broth microdilution” value in assay [1] was greater than 512 µg/mL; in assay [2], 8 µg/mL (≈ 10.4 µM); in assay [3] it was greater than 512 µg/mL; in [4] it was greater than 512 µg/mL; in assay [5], greater than 512 µg/mL; against Escherichia Coli MC 4100, greater than 512 µg/mL. Also, the “MIC (μg/ml) Broth microdilution” value was greater than 512 µg/mL in assay [6], greater than 512 µg/mL in [7], 128 µg/mL (≈ 166 µM) in [8] and greater than 512 µg/mL in assay [9].
As to “1-[5′-[(2S,3S)-N^3-L-Alanyl-N^2-[N-([(1S)-1-carboxy-phenethyl]carbamoyl]-L-leucinyl]-N^3-methyl-2,3-diaminobutyramido]-3′,5′-dideoxy-α-L-arabinofuranosyl]uracil [Compound 166]”, the “MIC (μg/ml) Broth microdilution” value in assay [1] was greater than 512 µg/mL; in assay [2], greater than 512 µg/mL; in assay [3] it was greater than 512 µg/mL; in assay [4] it was 256 µg/mL; in [5] it was 512 µg/mL; in the assay with Escherichia Coli MC 4100, greater than 512 µg/mL. The “MIC (μg/ml) Broth microdilution” value in assay [6] was greater than 512 µg/mL; in assay [7] it was greater than 512 µg/mL; in [8], greater than 512 µg/mL; in assay [9], 16 µg/mL.
In the case of `CC(C)CC(N)C(=O)N(C)C(C)C(NC(=O)C(CC(C)C)NC(=O)NC(Cc1c[nH]c2ccccc12)C(=O)O)C(=O)NCC1CC(O)C(n2ccc(=O)[nH]c2=O)O1` [Compound 108, 1-[5′[(2S,3S)-N^2-[N-[[(1S)-1-Carboxy-2-indol-3-ylethyl]carbamoyl]-L-leucyl]-N^3-L-leucyl-N^3-methyl-2,3-diaminobutyramido]-3′,5′-dideoxy-α-L-arabinofuranosyl]uracil], the “MIC (μg/ml) Broth microdilution” value is greater than 512 µg/mL in assay [1]; 32 µg/mL (≈ 40.1 µM) in [2]; greater than 512 µg/mL in assay [3]; 16 µg/mL (≈ 20.1 µM) in [4]; 512 µg/mL (≈ 642 µM) in assay [5]; 256 µg/mL (≈ 321 µM) in the assay on Escherichia Coli MC 4100. For the same compound, the “MIC (μg/ml) Broth microdilution” value is 512 µg/mL (≈ 642 µM) in [6], greater than 512 µg/mL in assay [7], 256 µg/mL (≈ 321 µM) in assay [8] and less than 1 µg/mL in assay [9].
For `C[C@@H]([C@H](NC(=O)[C@H](Cc1ccccc1)NC(=O)N[C@@H](Cc1ccc(O)cc1)C(=O)O)C(=O)NC[C@H]1C[C@@H](O)[C@H](n2ccc(=O)[nH]c2=O)O1)N(C)C(=O)[C@@H](N)COCc1ccccc1` [Compound 150, 1-[5′-[(2S,3S)-N^3-(L-O-Benzylserinyl)-N^2-[N-[[(1S)-1-carboxy-4-hydroxyphenethyl]carbamoyl]-L-phenylalanyl]-N^3-methyl-2,3-diaminobutyramido]-3′,5′-dideoxy-α-L-arabinofuranosyl]uracil], the “MIC (μg/ml) Broth microdilution” value was greater than 512 µg/mL in assay [1]; 64 µg/mL (≈ 73.3 µM) in assay [2]; greater than 512 µg/mL in assay [3]; 512 µg/mL (≈ 587 µM) in assay [4]; 512 µg/mL (≈ 587 µM) in assay [5]; 512 µg/mL (≈ 587 µM) against Escherichia Coli MC 4100. The “MIC (μg/ml) Broth microdilution” value turned out to be 256 µg/mL (≈ 293 µM) in assay [6], 256 µg/mL (≈ 293 µM) in assay [7], 256 µg/mL (≈ 293 µM) in assay [8] and 8 µg/mL (≈ 9.16 µM) in assay [9].
`CN[C@@H](C)[C@H](NC(=O)[C@H](Cc1ccccc1)NC(=O)N[C@@H](Cc1c[nH]c2ccccc12)C(=O)O)C(=O)NC[C@H]1C[C@@H](O)[C@H](n2ccc(=O)[nH]c2=O)O1` [Compound 151, 1-[5′-[(2S,3S)-N^2-[N-[[(1S)-1-Carboxy-2-indol-3-ylethyl]carbamoyl]-L-phenylalanyl]-N^3-methyl-2,3-diaminobutyramido]-3′,5′-dideoxy-α-L-arabinofuranosyl]uracil]: the “MIC (μg/ml) Broth microdilution” value in [1] is greater than 512 µg/mL; in assay [2], 32 µg/mL (≈ 44.5 µM); in [3], greater than 512 µg/mL; in [4], 128 µg/mL (≈ 178 µM); in [5], 256 µg/mL (≈ 356 µM); against Escherichia Coli MC 4100, 512 µg/mL (≈ 712 µM). The “MIC (μg/ml) Broth microdilution” value in assay [6] came out at 256 µg/mL (≈ 356 µM); in [7] it was 256 µg/mL (≈ 356 µM); in assay [8] it was 256 µg/mL (≈ 356 µM); in assay [9], 4 µg/mL (≈ 5.57 µM).
